What was measured:
His6-GlgX = assay: Bicinchoninic acid (BCA) reducing-end enzyme assay, wild-type GlgX; format: biochemical, Streptomyces venezuelae; conditions: for stimulation of GlgX hydrolysis of substrate: 1 µM His6-GlgX, 50 µM c-di-GMP
Description: Glycogen debranching enzymes hydrolyze α-(1→6)-linked glucan branches, producing malto-oligosaccharides with reducing ends[7]. The bicinchoninic acid (BCA) assay allows accurate photometric determination of reducing ends from oligosaccharides and is based on the reduction of Cu^2+ to Cu^+. A purple copper bicinchoninate complex with an absorbance maximum at 562 nm forms from Cu^+ and bicinchoninate. […] In addition, we tested the effect of c-di-GMP on GlgX activity by using polysaccharides with different degrees of α-(1→6)-linked glucans as a substrate (Fig. 2b). While glycogen contains α-(1→6)-linked glucan branches every 8–10 residue, amylose is essentially an unbranched chain of α−1,4-linked glucose subunits. Amylopectin is composed of α−1,4-linked glucose units with α-(1→6)-linkages at intervals of ∼20 units. Pullulan is a polysaccharide polymer consisting of maltotriose units in which the three glucose units are connected by α−1,4-glycosidic bonds. Consecutive maltotriose units are linked by a α−1,6-glycosidic bond.
Fig. 2 c-di-GMP stimulates glycogen breakdown activity of GlgX in vitro. a Bicinchoninic acid (BCA) in vitro enzyme assay. The purple copper bicinchoninate complex indicating GlgX-mediated generation of reducing ends in glycogen was quantified by photometric measurements at 562 nm. A562 values were converted into reducing ends [µM glucose equivalents] based on D-glucose as a standard. Reactions contained 0.05% (w/v) glycogen from rabbit, 1 µM GlgX and increasing concentrations of c-di-GMP (0–100 µM). Source data are provided as a Source data file. b BCA assay containing 0.05% of either glycogen from rabbit, pullulan, amylopectin from maize or amylose from potato as substrates. Where appropriate, 1 µM GlgX or 50 µM c-di-GMP were added to the reaction samples. Source data are provided as a Source data file. c BCA assay as in a with or without c-di-GMP (50 µM), 0.05% glycogen from rabbit (S) and 1 µM Vnz25270, GlgX, the active site mutants GlgXD342A, GlgXE378A, GlgXD342A+E378A, or the c-di-GMP-binding mutant variant GlgXDETR49-52 as indicated. The experiment was performed three times, each time with two technical replicates. The data points represent the mean ± SD of six data points. Source data are provided as a Source data file.
Hydrolysis of carbohydrates was assessed in vitro by measuring the accumulation of reducing sugar ends using the BCA assay[42] and D-glucose as a standard for calibration (Supplementary Fig. 11). Purified enzyme was diluted to […] in 20 mM (N-2-hydroxyethylpiperazine-N′−2-ethanesulfonic acid) HEPES (pH 7.5; ionic strength, 160 mM [adjusted with NaCl]) containing 10 mM MgCl2 and […] c-di-GMP (BioLog). Samples were incubated at rt for 5 min and reactions were initiated by the addition of 0.05% of the relevant carbohydrate provided by Sigma-Aldrich: glycogen from rabbit (cat. no G8876); amylose from potato (cat. no A0512); amylopectin from maize (cat. no. 10120); and pullulan (P4516). The mixture was incubated at 37 °C in a heat block for 1 h. Next, an equal volume of BCA reagent solution (250 mM Na2CO3; 144 mM NaHCO3; 2.5 mM sodium bicinconinic acid (Sigma); 6 mM L-serine (Roth); 2.5 mM CuSO4 x 5 H2O (Roth)) was added, reactions were vortexed vigorously and incubated at 80 °C in a heat block for 30 min. Assay mixtures were then cooled to rt. 125 μl sample aliquots were transferred in duplicates to a 96 well plate and the absorbance at 562 nm was measured using a plate reader.

His6-GlgXEC = target: T1, His6-GlgXEC (Escherichia coli, UniProt P15067); assay: DRaCALA with [32P]-c-di-GMP, E. coli GlgX; format: binding; conditions: 15 µg E. coli His6-GlgX
T1 construct: made in house; host or cells: E. coli Rosetta (DE3), pET15b
T1 sequence (P15067 whole entry): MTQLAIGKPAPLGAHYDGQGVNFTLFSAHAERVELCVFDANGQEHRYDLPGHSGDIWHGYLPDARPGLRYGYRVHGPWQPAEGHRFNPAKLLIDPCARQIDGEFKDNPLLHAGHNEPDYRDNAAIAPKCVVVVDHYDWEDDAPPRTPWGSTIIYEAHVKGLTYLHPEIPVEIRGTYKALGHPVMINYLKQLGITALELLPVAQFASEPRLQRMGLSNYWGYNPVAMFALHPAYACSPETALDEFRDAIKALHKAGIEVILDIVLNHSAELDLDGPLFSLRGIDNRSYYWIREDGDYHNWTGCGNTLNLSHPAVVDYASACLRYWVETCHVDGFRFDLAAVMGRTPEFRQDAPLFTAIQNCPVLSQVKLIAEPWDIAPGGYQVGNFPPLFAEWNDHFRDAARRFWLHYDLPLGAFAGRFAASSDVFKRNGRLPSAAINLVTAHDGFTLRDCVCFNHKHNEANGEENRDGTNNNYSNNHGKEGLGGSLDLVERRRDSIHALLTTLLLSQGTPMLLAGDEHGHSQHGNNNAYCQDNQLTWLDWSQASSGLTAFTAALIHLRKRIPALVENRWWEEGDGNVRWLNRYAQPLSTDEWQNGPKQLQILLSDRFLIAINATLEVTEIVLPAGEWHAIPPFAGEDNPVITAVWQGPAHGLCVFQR
Method: For DRaCALA assays, purified His6-GlgX (15 μg) was mixed with 0.5 μl undiluted [^32P]-c-di-GMP (42 nM) (Hartmann Analytic GmbH, Braunschweig) in binding buffer (25 mM Tris pH 8; 150 mM NaCl; 2.5% (v/v) glycerol; 5 mM MgCl2) and the reaction was incubated at rt for 5 min. For competition assays, 100 μM nonlabeled nucleotides were added to the samples and incubated at rt for 5 min prior to the addition of [^32P]-c-di-GMP. Reactions (10 μl) were spotted on the same nitrocellulose membrane (Roth), air dried for 10 min and analyzed via phosphorimaging.
(a) 15 µg of purified E. coli His6-GlgX
167 or His6-Vnz25270, respectively, were mixed with 0.5 µl of [32P]-c-di-GMP (Hartmann Analytic
168 GmbH, Braunschweig) in binding buffer (25 mM Tris pH 8.0, 150 mM NaCl, 2.5% (v/v) glycerol
169 and 5 mM MgCl2). 10 µL of the reactions were spotted on the same nitrocellulose membrane (Roth),
170 air dried for 10 min and analyzed by phosphorimaging. (b, c) 10 µM purified His6-Vnz25270 (b) or
171 His6-GlgXE.coli (c) in 25 mM Tris pH 8.0, 150 mM NaCl, 2.5% (v/v) glycerol and 5 mM MgCl2 were
172 incubated without or with (1 mM) c-di-GMP. Reactions were analyzed in a Tycho NT.6
173 (NanoTemper Technologies) device.
(1 picture or pasted object on this page, not shown here)

## Nc1nc2c(ncn2[C@@H]2O[C@@H]3CO[P@](=O)(O)O[C@H]4[C@@H](O)[C@H](n5cnc6c(=O)[nH]c(N)nc65)O[C@@H]4CO[P@](=O)(O)O[C@H]3[C@H]2O)c(=O)[nH]1 [c-di-GMP, bis-(3′−5′)-cyclic diguanosine monophosphate]
His6-GlgX; 0.05% glycogen from rabbit, 1 µM GlgX, c-di-GMP 3.125–100 µM
  c-di-GMP concentration with saturating enzymatic activity: 50 µM
His6-GlgX; substrate 0.05% amylopectin
  stimulation of GlgX hydrolysis of substrate: stimulates
His6-GlgX; substrate 0.05% amylose
  stimulation of GlgX hydrolysis of substrate: no stimulation
His6-GlgX; substrate 0.05% glycogen
  stimulation of GlgX hydrolysis of substrate: stimulates
His6-GlgX; substrate 0.05% pullulan
  stimulation of GlgX hydrolysis of substrate: stimulates
His6-GlgXEC
  binding of [32P]-c-di-GMP in DRaCALA: did not detect any interactions
